# From patent US20160090364A1, “PHTHALAZINONES AND ISOQUINOLINONES AS ROCK INHIBITORS” (BRISTOL-MYERS SQUIBB COMPANY, priority 2013, published 2016)
# How the values were obtained:
# ROCK1 = ROCK1 (Homo sapiens, UniProt Q13464); test: ROCK assay (Caliper LabChip peptide phosphorylation), ROCK1; format: biochemical; conditions: 5 μM ATP, 1.5 μM peptide substrate
# Description: The effectiveness of compounds of the present invention as ROCK inhibitors can be determined in a 30 μL assay containing 20 mM HEPES, pH 7.5, 20 mM MgCl2, 0.015% Brij-35, 4 mM DTT, 5 μM ATP and 1.5 μM peptide substrate (FITC-AHA-[…]-OH). Compounds were dissolved in DMSO so that the final concentration of DMSO was <2%, and the reaction was initiated with Rho kinase variants. After incubation, the reaction was terminated by the addition of EDTA and the phosphorylated and non-phosphorylated peptides separated using a LabChip 3000 Reader (Caliper Life Sciences). […] Compounds were tested in dose-response format, and the inhibition of kinase activity was calculated at each concentration of compound. The inhibition data were fit using a curve-fitting program to determine the IC50; i.e., the concentration of compound required to inhibit 50% of kinase activity.”
# Representative Examples were tested in the ROCK assay described above and found having ROCK inhibitory activity. A range of ROCK inhibitory activity (IC50 values) of ≦50 μM (50000 nM) was observed. Table A below lists the ROCK IC50 values measured for the following examples.
# [1] = tested on: neointimal formation in rats; conditions: model similar to balloon injury; cited from earlier work
# [2] = tested on: IL-1 beta-induced coronary stenosis; conditions: porcine, long term treatment; cited from earlier work
# ROCK1, sequence (Q13464 whole entry, species assumed): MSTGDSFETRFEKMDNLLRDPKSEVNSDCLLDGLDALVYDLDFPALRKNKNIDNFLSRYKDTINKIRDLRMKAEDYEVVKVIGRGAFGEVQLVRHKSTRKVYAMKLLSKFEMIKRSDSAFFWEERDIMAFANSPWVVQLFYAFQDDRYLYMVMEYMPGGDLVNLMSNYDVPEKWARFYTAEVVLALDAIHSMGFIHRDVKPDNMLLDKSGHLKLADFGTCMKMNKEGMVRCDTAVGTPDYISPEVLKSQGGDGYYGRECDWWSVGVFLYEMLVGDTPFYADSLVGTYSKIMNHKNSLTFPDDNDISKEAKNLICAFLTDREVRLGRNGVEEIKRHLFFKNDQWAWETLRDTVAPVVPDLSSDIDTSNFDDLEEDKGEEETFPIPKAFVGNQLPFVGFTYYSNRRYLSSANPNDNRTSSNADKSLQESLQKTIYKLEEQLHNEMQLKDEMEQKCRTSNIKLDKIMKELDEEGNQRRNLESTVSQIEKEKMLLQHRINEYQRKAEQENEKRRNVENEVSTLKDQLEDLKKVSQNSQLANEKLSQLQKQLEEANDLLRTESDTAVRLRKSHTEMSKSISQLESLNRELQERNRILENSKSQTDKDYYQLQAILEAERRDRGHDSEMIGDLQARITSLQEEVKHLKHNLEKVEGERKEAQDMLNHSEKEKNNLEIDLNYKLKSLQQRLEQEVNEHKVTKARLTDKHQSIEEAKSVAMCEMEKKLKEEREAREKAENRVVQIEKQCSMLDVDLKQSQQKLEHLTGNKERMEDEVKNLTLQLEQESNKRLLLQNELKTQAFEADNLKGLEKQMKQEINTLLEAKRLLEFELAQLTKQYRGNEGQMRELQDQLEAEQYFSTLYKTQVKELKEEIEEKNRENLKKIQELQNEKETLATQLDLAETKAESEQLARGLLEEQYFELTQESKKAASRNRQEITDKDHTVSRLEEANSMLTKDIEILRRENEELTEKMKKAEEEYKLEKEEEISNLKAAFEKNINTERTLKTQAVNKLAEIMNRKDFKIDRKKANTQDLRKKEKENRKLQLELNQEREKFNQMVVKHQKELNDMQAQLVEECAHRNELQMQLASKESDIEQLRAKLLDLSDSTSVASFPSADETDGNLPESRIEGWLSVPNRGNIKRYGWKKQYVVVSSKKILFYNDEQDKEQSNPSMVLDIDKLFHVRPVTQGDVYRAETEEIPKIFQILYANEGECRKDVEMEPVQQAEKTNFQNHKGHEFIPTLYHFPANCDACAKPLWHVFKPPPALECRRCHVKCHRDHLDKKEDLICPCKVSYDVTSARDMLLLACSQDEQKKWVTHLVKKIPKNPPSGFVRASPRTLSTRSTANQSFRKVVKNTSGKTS
smiles,measurement,setting,value
"O=C(Oc1ccc(-c2n[nH]c(=O)c3ccccc23)cc1)N1CCC(c2ccccc2)C1 (stereo not shown) [Example 69, 4-(4-oxo-3,4-dihydrophthalazin-1-yl)phenyl 3-phenylpyrrolidine-1-carboxylate]",IC50,ROCK1,≥ 50 µM
"C[C@@H](N)[C@H]1CC[C@H](C(=O)Nc2ccncc2)CC1 [Example Y-27632, Y-27632]",neointimal formation,[1],inhibited neointimal formation
O=S(=O)(c1cccc2cnccc12)N1CCCNCC1 [fasudil],coronary constrictive remodeling,[2],promote a regression of coronary constrictive remodeling
same,coronary stenosis,[2],progressively reduce coronary stenosis
